Read-outs that look alike come from different tables or passages of the source.
Assays:
[1] = system: A2780, human ovarian carcinoma cells; assay: Proliferation assay, A2780 (Method 3); type: cell-based; settings: A2780, 4 days, crystal violet, read-out: Inhibition of A2780 cell proliferation IC50
Procedure: (§1) After 24 hours, the cells of one plate (zero-point plate) were stained with crystal violet (see below), while the medium of the other plates was replaced by fresh culture medium (200 μl), to which the test substances were added in various concentrations (0 μM, as well as in the range of 0.001-10 μM; the final concentration of the solvent dimethyl sulfoxide was 0.5%). The cells were incubated for 4 days in the presence of test substances. Cell proliferation was determined by staining the cells with crystal violet: the cells were fixed by adding 20 μl/measuring point of an 11% glutaric aldehyde solution for 15 minutes at room temperature. After three washing cycles of the fixed cells with water, the plates were dried at room temperature. The cells were stained by adding 100 μl/measuring point of a 0.1% crystal violet solution (pH 3.0). After three washing cycles of the stained cells with water, the plates were dried at room temperature. The dye was dissolved by adding 100 μl/measuring point of a 10% acetic acid solution. The extinction was determined by photometry at a wavelength of 595 nm. The change of cell number, in percent, was calculated by normalization of the measured values to the extinction values of the zero-point plate (=0%) and the extinction of the untreated (0 μm) cells (=100%).

CDK9/CycT1 [2] = target: T1, CDK9/CycT1 (Homo sapiens (Human), UniProt P50750); assay: CDK9/CycT1 kinase assay (Method 1a); type: biochemical; settings: for Selectivity CDK9/CDK2: derived from Methods 1a. and 2.; for IC50: 10 μM ATP
Description: 1a. CDK9/CycT1 Kinase Assay:
CDK9/CycT1-inhibitory activity of compounds of the present invention was quantified employing the CDK9/CycT1 TR-FRET assay as described in the following paragraphs:
(§2) Recombinant full-length His-tagged human CDK9 and CycT1, expressed in insect cells and purified by Ni-NTA affinity chromatography, were purchased from Invitrogen (Cat. No PV4131). As substrate for the kinase reaction biotinylated peptide biotin-Ttds-[…] (C-terminus in amid form) was used which can be purchased e.g. form the company JERINI Peptide Technologies (Berlin, Germany).
(§3) For the assay 50 nl of a 100 fold concentrated solution of the test compound in DMSO was pipetted into a black low volume 384 well microtiter plate (Greiner Bio-One, Frickenhausen, Germany), 2 μl of a solution of CDK9/CycT1 in aqueous assay buffer [50 mM Tris/HCl pH 8.0, 10 mM MgCl2, 1.0 mM dithiothreitol, 0.1 mM sodium ortho-vanadate, 0.01% (v/v) Nonidet-P40 (Sigma)] were added and the mixture was incubated for 15 min at 22° C. to allow pre-binding of the test compounds to the enzyme before the start of the kinase reaction. […] The concentration of CDK9/CycT1 was adjusted depending of the activity of the enzyme lot and was chosen appropriate to have the assay in the linear range, typical concentrations were in the range of 1 μg/ml.
(§4) The resulting mixture was incubated 1 h at 22° C. to allow the formation of complex between the phosphorylated biotinylated peptide and the detection reagents. Subsequently the amount of phosphorylated substrate was evaluated by measurement of the resonance energy transfer from the Eu-chelate to the streptavidine-XL. Therefore, the fluorescence emissions at 620 nm and 665 nm after excitation at 350 nm was measured in a HTRF reader, e.g. a Rubystar (BMG Labtechnologies, Offenburg, Germany) or a Viewlux (Perkin-Elmer). The ratio of the emissions at 665 nm and at 622 nm was taken as the measure for the amount of phosphorylated substrate.

[3] = system: MOLM-13 human acute myeloid leukemia cells; assay: Proliferation assay, MOLM-13 (Cell Titre-Glo, Method 3); type: cell-based; settings: MOLM-13, 72-hour exposure, read-out: Inhibition of MOLM-13 cell proliferation IC50
Procedure: Non-adherent MOLM-13 human acute myeloid leukemia cells (DSMZ ACC 554) were seeded at a density of 5,000 cells/well in a 96-well multititer plate in 100 μL of growth medium supplemented 10% fetal calf serum. After 24 hours, cell viability of one plate (zero-point plate) was determined with the Cell Titre-Glo Luminescent Cell Viability Assay (Promega), while 50 μL of test compound containing medium was added to the wells of the other plates (final concentrations in the range of 0.001-10 μM and DMSO controls; the final concentration of the solvent dimethyl sulfoxide was 0.5%). Cell viability was assessed after 72-hour exposure with the Cell Titre-Glo Luminescent Cell Viability Assay (Promega).

[4] = In vitro metabolic stability in rat hepatocytes (Method 5); type: in vitro ADME, Han Wistar rat; settings: 1 μM test compound
Procedure: 5. Investigation of In Vitro Metabolic Stability in Rat Hepatocytes
Hepatocytes from Han Wistar rats were isolated via a 2-step perfusion method. After perfusion, the liver was carefully removed from the rat: the liver capsule was opened and the hepatocytes were gently shaken out into a Petri dish with ice-cold Williams medium E (purchased from Sigma Aldrich Life Science, St Louis, Mo.). The resulting cell suspension was filtered through sterile gaze in 50 ml falcon tubes and centrifuged at 50×g for 3 min at room temperature. The cell pellet was resuspended in 30 ml WME and centrifuged through a Percoll® gradient for 2 times at 100×g. The hepatocytes were washed again with Williams' medium E (WMA) and resuspended in medium containing 5% Fetal calf serum (FCS, purchased from Invitrogen, Auckland, NZ). Cell viability was determined by trypan blue exclusion.
For the metabolic stability assay liver cells were distributed in WME containing 5% FCS to glass vials at a density of 1.0×10^6 vital cells/ml. The test compound was added to a final concentration of 1 μM. During incubation, the hepatocyte suspensions were continuously shaken and aliquots were taken at 2, 8, 16, 30, 45 and 90 min, to which equal volumes of cold acetonitrile were immediately added. Samples were frozen at −20° C. over night, after subsequently centrifuged for 15 minutes at 3000 rpm and the supernatant was analyzed with an Agilent 1200 HPLC-system with LCMS/MS detection.
The half-life of a test compound was determined from the concentration-time plot. From the half-life the intrinsic clearances were calculated. Together with the additional parameters liver blood flow, amount of liver cells in vivo and in vitro.

[5] = system: HeLa, human cervical tumour cells; assay: Proliferation assay, HeLa (Method 3); type: cell-based; settings: 4 days, crystal violet, read-out: Inhibition of HeLa cell proliferation IC50
Procedure: as §1

CDK9/CycT1 [6] = target: T1, CDK9/CycT1; assay: CDK9/CycT1 high ATP kinase assay (Method 1b); type: biochemical; settings: 2 mM ATP
Procedure: 1b. CDK9/CycT1 High ATP Kinase Assay
CDK9/CycT1-inhibitory activity of compounds of the present invention at a high ATP concentration after preincubation of enzyme and test compounds was quantified employing the CDK9/CycT1 TR-FRET assay as described in the following paragraphs.
as §2, with “were purchase” for “were purchased”, “JERINI peptide technologies” for “JERINI Peptide Technologies”
as §3, with “of 0.5” for “of 1”
as §4

CDK2/CycE = CDK2/CycE (Homo sapiens (Human), UniProt P24941); assay: CDK2/CycE kinase assay (Method 2); type: biochemical; settings: 10 μM ATP
Description: 2. CDK2/CycE Kinase Assay:
CDK2/CycE-inhibitory activity of compounds of the present invention was quantified employing the CDK2/CycE TR-FRET assay as described in the following paragraphs:
Recombinant fusion proteins of GST and human CDK2 and of GST and human CycE, expressed in insect cells (Sf9) and purified by Glutathion-Sepharose affinity chromatography, were purchased from ProQinase GmbH (Freiburg, Germany). As substrate for the kinase reaction biotinylated peptide biotin-Ttds-[…] (C-terminus in amid form) was used which can be purchased e.g. form the company JERINI Peptide Technologies (Berlin, Germany).
as §3, with “CDK2/CycE” for “CDK9/CycT1”, “130 ng/ml.” for “1 μg/ml.”
as §4, with “TR-FRET” for “HTRF”

T1 sequence (P50750 whole entry): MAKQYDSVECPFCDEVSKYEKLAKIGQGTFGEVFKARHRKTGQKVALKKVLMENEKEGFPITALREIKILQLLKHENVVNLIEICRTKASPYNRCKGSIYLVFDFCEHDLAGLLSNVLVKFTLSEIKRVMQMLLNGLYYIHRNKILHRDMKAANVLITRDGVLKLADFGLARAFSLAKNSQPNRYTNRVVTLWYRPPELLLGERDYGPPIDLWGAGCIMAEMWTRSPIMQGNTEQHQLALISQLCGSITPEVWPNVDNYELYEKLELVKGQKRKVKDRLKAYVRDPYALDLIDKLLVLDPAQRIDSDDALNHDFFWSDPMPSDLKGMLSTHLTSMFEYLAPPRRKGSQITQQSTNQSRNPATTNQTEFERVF
T1 sequence (O60563 whole entry partner): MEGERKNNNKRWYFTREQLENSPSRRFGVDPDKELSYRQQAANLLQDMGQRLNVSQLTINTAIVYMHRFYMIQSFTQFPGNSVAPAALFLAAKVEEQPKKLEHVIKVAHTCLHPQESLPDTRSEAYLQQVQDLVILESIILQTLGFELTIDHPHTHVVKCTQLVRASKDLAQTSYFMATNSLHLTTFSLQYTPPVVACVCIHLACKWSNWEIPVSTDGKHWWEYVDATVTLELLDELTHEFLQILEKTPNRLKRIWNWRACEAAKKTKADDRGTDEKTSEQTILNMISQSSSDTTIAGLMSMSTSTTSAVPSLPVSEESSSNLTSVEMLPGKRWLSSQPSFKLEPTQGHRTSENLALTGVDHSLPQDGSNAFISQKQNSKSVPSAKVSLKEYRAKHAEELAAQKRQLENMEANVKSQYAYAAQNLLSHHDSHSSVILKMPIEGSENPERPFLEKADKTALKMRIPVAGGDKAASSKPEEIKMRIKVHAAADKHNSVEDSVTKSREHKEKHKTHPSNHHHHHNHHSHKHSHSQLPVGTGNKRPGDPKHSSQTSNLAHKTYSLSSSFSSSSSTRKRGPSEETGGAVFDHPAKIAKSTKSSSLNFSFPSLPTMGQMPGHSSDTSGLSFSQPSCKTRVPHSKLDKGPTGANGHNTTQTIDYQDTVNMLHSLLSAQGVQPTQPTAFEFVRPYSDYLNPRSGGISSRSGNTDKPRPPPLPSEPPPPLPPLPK

Row | Structure (SMILES) | IC50 [1] [nM] | Selectivity CDK9/CDK2 (CDK9/CycT1 [2]) | IC50 ([3]; Homo sapiens, MOLM-13, 72 h) [nM] | maximal calculated oral bioavailability (Fmax) based on stability data in rat Hepatocytes [4] [%] | IC50 ([5]; Homo sapiens, 96 h) [nM] | IC50 [3] [nM] | IC50 [5] [nM] | IC50 ([1]; Homo sapiens, A2780, 96 h) [nM] | IC50 (CDK9/CycT1 [2]) [nM] | IC50 (CDK9/CycT1 [6]) [nM] | IC50 (CDK2/CycE) [nM]
1 | CS(=O)(Cc1cc(Nc2ncc(F)c(-c3ccc(F)cc3F)n2)cc(S(F)(F)(F)(F)F)c1)=NC#N (single isomer, unassigned) [Example 29, {[3-{[4-(2,4-Difluorophenyl)-5-fluoropyrimidin-2-yl]amino}-5-(pentafluoro-λ^6-sulfanyl)benzyl](methyl)oxido-λ^6-sulfanylidene}cyanamide] | – | 198 | 92 | – | – | – | 178 | 96 | 5 | 8 | 940
2 | CS(=O)(Cc1cc(Nc2ncc(F)c(-c3ccc(F)cc3F)n2)cc(S(F)(F)(F)(F)F)c1)=NC#N (single isomer, unassigned) [Example 30, {[3-{[4-(2,4-Difluorophenyl)-5-fluoropyrimidin-2-yl]amino}-5-(pentafluoro-λ^6-sulfanyl)benzyl](methyl)oxido-λ^6-sulfanylidene}cyanamide] | 167 | 360 | – | – | – | 141 | 359 | – | 4 | 9 | 1500
3 | CS(=N)(=O)Cc1cc(Nc2ncc(F)c(-c3ccc(F)cc3F)n2)cc(S(F)(F)(F)(F)F)c1 (single isomer, unassigned) [Example 31, 4-(2,4-Difluorophenyl)-5-fluoro-N-{3-[(S-methylsulfonimidoyl)methyl]-5-(pentafluoro-λ^6-sulfanyl)phenyl}pyrimidin-2-amine] | – | 16 | 281 | – | 501 | – | – | 279 | 54 | 7 | 890

Other lines, results leading:

Row | IC50 [1] [nM] | Selectivity CDK9/CDK2 (CDK9/CycT1 [2]) | IC50 ([3]; Homo sapiens, MOLM-13, 72 h) [nM] | maximal calculated oral bioavailability (Fmax) based on stability data in rat Hepatocytes [4] [%] | IC50 ([5]; Homo sapiens, 96 h) [nM] | IC50 [3] [nM] | IC50 [5] [nM] | IC50 ([1]; Homo sapiens, A2780, 96 h) [nM] | IC50 (CDK9/CycT1 [2]) [nM] | IC50 (CDK9/CycT1 [6]) [nM] | IC50 (CDK2/CycE) [nM] | Structure (SMILES)
4 | 95 | 72 | 316 | 77 | 840 | – | – | – | – | – | – | CS(=N)(=O)Cc1cc(Nc2ncc(F)c(-c3ccc(F)cc3F)n2)cc(C(F)(F)F)c1 (single isomer, unassigned) [Example 5, 4-(2,4-Difluorophenyl)-5-fluoro-N-{3-[(S-methylsulfonimidoyl)methyl]-5-(trifluoromethyl)phenyl}pyrimidin-2-amine]
5 | 300 | 50 | – | 71 | – | 374 | 950 | – | – | – | – | CS(=N)(=O)Cc1cc(Nc2ncc(F)c(-c3ccc(F)cc3F)n2)cc(C(F)(F)F)c1 (single isomer, unassigned) [Example 6, 4-(2,4-Difluorophenyl)-5-fluoro-N-{3-[(S-methylsulfonimidoyl)methyl]-5-(trifluoromethyl)phenyl}pyrimidin-2-amine]
6 | – | 30 | 946 | – | 1060 | – | – | 1000 | 15 | 334 | 470 | CS(=N)(=O)Cc1cc(Br)cc(Nc2ncc(F)c(-c3ccc(F)cc3F)n2)c1 (single isomer, unassigned) [Example 42, N-{3-Bromo-5-[(S-methylsulfonimidoyl)methyl]phenyl}-4-(2,4-difluorophenyl)-5-fluoropyrimidin-2-amine]
